Experimental data published in patent US6083985A, “Medicinal composition” (Banyu Pharmaceutical Co., Ltd., priority 1995, dated 2000).
Where two headings read alike, the source gives them in different places.

Columns and labels:
[1] = tested on: farnesylation of Ras protein in NIH3T3 cells; assay: Inhibitory effect on farnesylation of Ras protein in NIH3T3 cells into which an activated ras gene was introduced (SDS-PAGE, anti-Ras antibody, densitometry); format: cell-based; conditions: for inhibitory activity on farnesylation of Ras proteins in the presence of L-654,969: in the presence of L-654,969 (0.15 μM or 5 μM)
Method: Inhibitory effect on farnesylation of Ras protein in NIH3T3 cells into which an activated ras gene was introduced, was measured by using the compounds prepared in Preparation Examples 3 and 5 as PFT inhibitors and L-654,969 (an active metabolite of simvastatin) as a hydroxymethylglutaryl CoA reductase inhibitor.
The cells were cultured for 24 hours, peeled off the plates and dissolved in accordance with the method disclosed in J. Biol. Chem., vol. 268, 18415 (1993). The cell solutions were centrifuged at 12000 g for 5 minutes, and the supernatants were used as cell extracts. The cell extracts were subjected to SDS polyacrylamide gel electrophoresis to separate the farnesylated Ras protein and the unfarnesylated Ras protein. […] After the anti-primary antibody, a peroxidaze-conjugated antibody (a secondary antibody) was allowed to react, the Ras protein was detected by mean of a chemoluminescence amplification kit. The proportion of the unfarnesylated Ras protein was determined by using a densitometer and defined as the inhibitory activity.

BMJ1 cells = assay: Inhibitory activity on proliferation of transformed BMJ1 cells (SRB method); format: cell-based, mouse; conditions: for IC50: Mus musculus, transformed BMJ1 cells; for 50% cell proliferation inhibitory activity in the presence of L-654,969: presence of 0.8 μM of L-654,969
Method: The BMJ1 cells which were obtained by introducing a hormone-inducible activated ras gene into BALB3T3 cells, a mouse-derived established cell line, were transformed by adding dexamethasone to the culture so as to produce an activated Ras protein. To assess the inhibitory effects of the PFT inhibitors on cell proliferation, the 50% proliferation inhibitory concentration for each compound was calculated by adding each compound to a transformed BMJ1 cell culture at various concentrations, and counting the number of cells after incubation. The cell numbers were counted in accordance with the SRB method disclosed in Proc. Am. Assoc. Cancer Res., vol.

[2] = PFT inhibitor 1 μM, L-654,969 5 μM, 24 hours
[3] = PFT inhibitor 3 μM, L-654,969 0.15 μM, 24 hours
[4] = PFT inhibitor 3 μM, L-654,969 5 μM, 24 hours
[5] = In the absence of L-654,969, read-out: 50% Proliferation inhibitory concentration (IC50 μM) In the absence of L-654,969
[6] = In the presence of 0.8 μM of L-654,969, read-out: 50% Proliferation inhibitory concentration (IC50 μM) In the presence of 0.8 μM of L-654,969

SMILES | inhibition at 10 µM ([1]; Mus musculus, NIH3T3, PFT inhibitor 10 μM, L-654,969: None, 24 hours, read-out: Inhibitory rate (%) on farnesylation of the Ras proteins) [%] | Inhibitory rate (%) on farnesylation of the Ras proteins [1, 2] [%] | Inhibitory rate (%) on farnesylation of the Ras proteins [1, 3] [%] | Inhibitory rate (%) on farnesylation of the Ras proteins [1, 4] [%] | Inhibitory rate (%) on farnesylation of the Ras proteins ([1]; PFT inhibitor 10 μM, L-654,969 0.15 μM, 24 hours) [%] | Inhibitory rate (%) on farnesylation of the Ras proteins ([1]; PFT inhibitor 10 μM, L-654,969 5 μM, 24 hours) [%] | inhibitory activity on farnesylation of Ras proteins in the presence of L-654,969 [1] | IC50 (BMJ1 cells; [5]) [µM] | IC50 (BMJ1 cells; [6]) [µM] | 50% cell proliferation inhibitory activity in the presence of L-654,969 (BMJ1 cells) | inhibition of farnesylation of the Ras proteins by L-654,969 by itself ([1]; 0.15 μM or 5 μM, by itself) | inhibition of cell proliferation by L-654,969 alone (BMJ1 cells; 0.8 μM, alone) | inhibition at 3 µM ([1]; Mus musculus, NIH3T3, PFT inhibitor 3 μM, L-654,969: None, 24 hours, read-out: Inhibitory rate (%) on farnesylation of the Ras proteins) [%] | Inhibitory rate (%) on farnesylation of the Ras proteins ([1]; PFT inhibitor 0.3 μM, L-654,969 5 μM, 24 hours) [%] | Inhibitory rate (%) on farnesylation of the Ras proteins ([1]; PFT inhibitor 1 μM, L-654,969 0.15 μM, 24 hours) [%]
C[C@H]([C@H](C/C=C/c1nc2ccccc2o1)c1ccc2c(c1)OCO2)N(Cc1ccc2ccccc2c1)C(=O)CC(CC(=O)O)(C(=O)O)C(=O)O (racemic) [Preparation Example 3, 3-[N-{(1RS,2RS,4E)-5-(2-benzoxazolyl)-1-methyl-2-(3,4-methylenedioxyphenyl)-4-pentenyl}-N-(2-naphthylmethyl)carbamoyl]-1,2,2-propanetricarboxylic acid] | 32 | 55 | 27 | 88 | 67 | 90 | increased synergically and concentration-dependently | 130 | 11 | increased synergecally and concentration-dependently | – | – | – | – | –
C[C@H]([C@H](C/C=C/c1nc2ccccc2o1)c1ccc2c(c1)OCO2)N(Cc1ccc2ccccc2c1)C(=O)[C@H](O)[C@@H](CC(=O)[O-])C(=O)[O-].[Na+].[Na+] (racemic) [Preparation Example 4, disodium (3RS,4RS)-4-[N-{(1RS,2RS,4E)-5-(2-benzoxazolyl)-1-methyl-2-(3,4-methylenedioxyphenyl)-4-pentenyl}-N-(2-naphthylmethyl)carbamoyl]-3-carboxylato-4-hydroxybutanoate] | – | – | – | – | – | – | – | 105 | 6.5 | increased synergecally and concentration-dependently | – | – | – | – | –
CCC(C)(C)C(=O)O[C@H]1C[C@@H](C)C=C2C=C[C@H](C)[C@H](CC[C@@H](O)C[C@@H](O)CC(=O)O)[C@H]21 [L-654,969, reference compound] | – | – | – | – | – | – | – | – | – | – | does not inhibit farnesylation of the Ras proteins | does not inhibit cell proliferation alone | – | – | –
C[C@H]([C@H](C/C=C/c1nc2ccccc2o1)c1ccc2c(c1)OCO2)N(Cc1ccc2ccccc2c1)C(=O)C(O)=C(CC(=O)O)C(=O)OC(C)(C)C [Preparation Example 5, 4-[N-{(1R,2R,4E)-5-(2-benzoxazolyl)-1-methyl-2-(3,4-methylenedioxyphenyl)-4-pentenyl}-N-(2-naphthylmethyl)carbamoyl]-3-tert-butoxycarbonyl-4-hydroxy-3-butenoic acid] | – | 86 | 72 | 95 | – | – | increased synergically and concentration-dependently | 3.1 | 0.93 | increased synergecally and concentration-dependently | – | – | 32 | 43 | 18
